# In PubChem BioAssay AID602427 (Sanford-Burnham Center for Chemical Genomics, 2012):
# Active and inactive are the calls of the source.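 Rule for the calls: active = EC50 at or below 20 micromolar; inactive = the rest.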
# Target: Neurotensin receptor type 1 (Homo sapiens) (UniProt P30989)
# Assay: NTR1 agonists, beta-arrestin recruitment, SAR follow-up, orthogonal assay for NTR1 agonist project, cell-based, luminescence, CHO-K1 NTSR1 PathHunter (AID 602427);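 note: agonist potency for NTR1 activation where higher luminescence means more arrestin recruitment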
# Sequence of Neurotensin receptor type 1 (Homo sapiens) (P30989 whole entry, looked up): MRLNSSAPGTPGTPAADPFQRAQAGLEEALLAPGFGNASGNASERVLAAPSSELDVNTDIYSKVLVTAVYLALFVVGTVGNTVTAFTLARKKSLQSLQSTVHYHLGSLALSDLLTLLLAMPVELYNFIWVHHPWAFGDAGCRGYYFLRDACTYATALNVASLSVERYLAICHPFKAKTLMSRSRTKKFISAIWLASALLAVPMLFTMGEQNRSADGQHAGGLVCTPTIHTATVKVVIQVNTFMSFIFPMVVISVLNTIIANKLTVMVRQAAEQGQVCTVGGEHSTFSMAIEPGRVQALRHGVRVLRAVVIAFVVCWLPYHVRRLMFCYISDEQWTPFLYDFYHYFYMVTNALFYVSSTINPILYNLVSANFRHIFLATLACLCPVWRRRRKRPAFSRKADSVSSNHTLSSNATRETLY
row,Compound,EC50
1,CC(C)C[C@H](NC(=O)c1nc(-c2ccnc3ccccc23)c(-c2ccccc2)s1)C(=O)O,> 33 µM (inactive)
2,COc1ccc(C(=O)c2cn(CC3CC3)c3ccccc3c2=O)cc1,> 33 µM (inactive)
3,O=C(c1ccccc1)c1cn(Cc2ccccc2)c2ccccc2c1=O,> 33 µM (inactive)
4,COc1cc2c3nnc(-c4ccc(F)cc4)c-3cn(Cc3ccc(F)cc3)c2cc1OC,> 33 µM (inactive)
5,COc1cc2c3nnc(-c4ccc(F)cc4)c-3cn(Cc3ccccc3N(C)C)c2cc1OC,> 33 µM (inactive)
6,COc1ccc(C(=O)c2cn(Cc3ccc(N(C)C)cc3)c3ccccc3c2=O)cc1,> 33 µM (inactive)
7,CCOc1ccc(-c2nnc3c4cc(OC)c(OC)cc4n(Cc4ccc(C)cc4)cc2-3)cc1,> 33 µM (inactive)
8,COc1ccc2c3nnc(-c4ccc(C)cc4)c-3cn(Cc3ccc(C)cc3)c2c1,> 33 µM (inactive)
9,O=C(O)c1nc(-c2ccnc3ccccc23)c(-c2ccccc2)s1,> 33 µM (inactive)
10,COc1ccc(Cn2cc3c(-c4ccc(OC)cc4)nnc-3c3ccccc32)cc1,> 33 µM (inactive)
11,Fc1ccc(Cn2cc3c(-c4ccc(Cl)cc4)nnc-3c3cc4c(cc32)OCO4)cc1,> 33 µM (inactive)
12,COc1ccc2c(c1)c1nnc(-c3ccc(F)cc3)c-1cn2Cc1ccc(F)cc1,> 33 µM (inactive)
13,Cc1ccc(-n2ncc3c(N4CCN(c5ccccc5)CC4)ncnc32)cc1,> 33 µM (inactive)
14,COc1ccc(-n2ncc3c(N4CCN(c5ccccc5)CC4)ncnc32)cc1,> 33 µM (inactive)
15,COc1cccc(N2CCN(c3nc(C4CCC4)nc4cc(OC)c(OC)cc34)CC2)c1,> 33 µM (inactive)
16,COc1ccc(-c2nnc3c4ccccc4n(Cc4ccccc4)cc2-3)cc1,> 33 µM (inactive)

row,Compound,EC50
1,COc1ccc(Cn2cc(C(=O)c3ccc(OC)cc3)c(=O)c3ccccc32)cc1,> 33 µM (inactive)
2,COc1cc2nc(C3CCCC3)nc(N3CCN(c4ccccc4OC)CC3)c2cc1OC,inactive
3,COc1ccc(-c2nnc3c4ccccc4n(CC4CC4)cc2-3)cc1,> 33 µM (inactive)
4,COc1ccc(Cn2c(SCc3cc(C)ccc3C)nc3cc(OC)c(OC)cc3c2=N)cc1Cl,> 33 µM (inactive)
5,Cc1ccc(-n2ncc3c(N4CCN(c5ccccc5F)CC4)ncnc32)c(C)c1,> 33 µM (inactive)
6,COc1ccc(C(=O)c2cn(Cc3ccc(Cl)cc3)c3ccccc3c2=O)cc1,> 33 µM (inactive)
7,N=c1c2ccccc2nc(SCc2ccc(Cl)cc2)n1Cc1ccccc1,> 33 µM (inactive)
8,COc1ccc(/C=N/Nc2nc(-c3ccc(S(=O)(=O)N(C)C)cc3)cs2)cc1,> 33 µM (inactive)
9,O=S(=O)(c1ccc(-c2csc(N/N=C/c3ccco3)n2)cc1)N1CCCC1,> 33 µM (inactive)
10,Cc1ccc(Cn2cc3c(-c4ccc(F)cc4)nnc-3c3cc4c(cc32)OCO4)cc1,> 33 µM (inactive)
11,COc1ccccc1N1CCN(c2nc(C3CCC3)nc3ccccc23)CC1,> 33 µM (inactive)
12,COc1cc2c3nnc(-c4ccc(F)cc4)c-3cn(Cc3ccc(OC(F)(F)F)cc3)c2cc1OC,> 33 µM (inactive)
13,CCN(CC)c1ccc(/C=N/Nc2nc(-c3ccc(S(=O)(=O)N(C)C)cc3)cs2)cc1,> 33 µM (inactive)
14,COc1ccc(C(=O)c2cn(Cc3ccc(F)cc3)c3ccccc3c2=O)cc1,> 33 µM (inactive)
15,COc1ccc(C(=O)c2cn(Cc3ccc(OC(F)(F)F)cc3)c3ccccc3c2=O)cc1,> 33 µM (inactive)
16,Cc1ccc(-c2nnc3c4cc5c(cc4n(Cc4ccccc4)cc2-3)OCO5)cc1C,> 33 µM (inactive)

# Results, then the compound that gave them:
row,EC50,Compound
1,> 33 µM (inactive),CC(C)C[C@H](NC(=O)c1cn(-c2ccncc2)c(-c2ccccc2)n1)C(=O)O
2,> 33 µM (inactive),COc1cc2c3nnc(-c4ccc(F)cc4)c-3cn(CCc3ccccc3)c2cc1OC
3,> 33 µM (inactive),COc1cc2c3nnc(-c4ccccc4)c-3cn(Cc3ccccc3)c2cc1OC
4,> 33 µM (inactive),COc1cc2nc(-c3ccccc3)nc(N3CCN(c4ccccc4OC)CC3)c2cc1OC
5,> 33 µM (inactive),COc1cc2c3nnc(-c4ccccc4)c-3cn(Cc3ccc(C)cc3)c2cc1OC
6,> 33 µM (inactive),COc1cccc(OC)c1-c1nc(C(=O)NC2(C(=O)O)C3CC4CC(C3)CC2C4)cn1-c1ccnc2cc(Cl)ccc12 (stereo not drawn)
7,> 33 µM (inactive),CCc1ccc(-c2nnc3c4cc(OC)c(OC)cc4n(Cc4ccccc4)cc2-3)cc1
8,> 33 µM (inactive),COc1cc2nc(-c3ccccc3)nc(N3CCN(c4ccccc4F)CC3)c2cc1OC
9,> 33 µM (inactive),CC(C)C[C@H](NC(=O)c1cn(-c2ccnc3cc(Cl)ccc23)c(-c2c(Cl)cccc2Cl)n1)C(=O)O
10,> 33 µM (inactive),COc1cc2c(=O)c(C(=O)c3ccc(F)cc3)cn(Cc3ccncc3)c2cc1OC
11,> 33 µM (inactive),COc1cc2nc(C3CCC3)nc(N3CCN(c4ccccc4Cl)CC3)c2cc1OC
12,> 33 µM (inactive),COc1cc2c(=O)c(C(=O)c3ccc(F)cc3)cn(Cc3ccc(OC(F)(F)F)cc3)c2cc1OC
13,> 33 µM (inactive),CC(C)C[C@H](NC(=O)c1cn(-c2ccnc3cc(Cl)ccc23)c(-c2ccccc2)n1)C(=O)O
14,> 33 µM (inactive),COc1cccc(OC)c1-c1cc(C(=O)NC2(C(=O)O)C3CC4CC(C3)CC2C4)nn1-c1ccc(C(=O)N(C)CCCN(C)C)cc1C(C)C (stereo not drawn)
15,> 33 µM (inactive),COc1cc2c(=O)c(C(=O)c3ccc(F)cc3)cn(Cc3ccc(Cl)cc3)c2cc1OC
16,> 33 µM (inactive),COc1ccc(Cn2c(SCc3ccccc3)nc3cc(OC)c(OC)cc3c2=N)cc1Cl

row,EC50,Compound
1,> 33 µM (inactive),COc1cc2c3nnc(-c4ccc(Cl)cc4)c-3cn(Cc3ccccc3)c2cc1OC
2,> 33 µM (inactive),COc1cccc(OC)c1-c1cc(C(=O)O)nn1-c1ccnc2cc(Cl)ccc12
3,> 33 µM (inactive),COc1cc2ncnc(N3CCN(c4ccccc4OC)CC3)c2cc1OC
4,inactive,COc1ccc2nc(C3CCC3)nc(N3CCN(c4ccccc4OC)CC3)c2c1
5,> 33 µM (inactive),COc1cc2nc(-c3ccccc3)nc(N3CCN(c4ccc(Cl)cc4)CC3)c2cc1OC
6,> 33 µM (inactive),COc1cc2c3nnc(-c4ccc(F)cc4)c-3cn(Cc3ccccn3)c2cc1OC
7,inactive,COc1cc2c3nnc(-c4ccc(C)c(C)c4)c-3cn(Cc3ccccc3)c2cc1OC
8,> 33 µM (inactive),COc1ccc(-c2nc(C(=O)N[C@@H](CC(C)C)C(=O)O)cn2-c2ccnc3cc(Cl)ccc23)c(OC)c1
9,> 33 µM (inactive),COc1cc2c3nnc(-c4ccc(F)cc4)c-3cn(Cc3cccc(C)c3)c2cc1OC
10,> 33 µM (inactive),COc1cc2ncc3c(-c4ccc(F)cc4)n[nH]c3c2cc1OC
11,> 33 µM (inactive),COc1cccc(OC)c1-c1nc(C(=O)N[C@@H](CC(C)C)C(=O)O)cn1-c1ccc(C)cc1
12,> 33 µM (inactive),COc1cc2nc(C3CCC3)nc(N3CCN(c4ccccc4C)CC3)c2cc1OC
13,> 33 µM (inactive),COc1cc2c3nnc(-c4ccc(F)cc4)c-3cn(Cc3ccc(Cl)cc3)c2cc1OC
14,> 33 µM (inactive),CCOc1cc2nc(-c3ccc(OC)c(OC)c3)nc(N3CCN(c4ccccc4F)CC3)c2cc1OC
15,> 33 µM (inactive),COc1ccc(-c2nnc3c4cc(OC)c(OC)cc4n(Cc4ccc(F)cc4)cc2-3)cc1
